Like-named read-outs stand apart in the source and are kept apart here.
Key:
[1] = Precipitation seen in the spectral shift titration; type: physicochemical; details: assay buffer, high concentrations
Protocol: Therefore, measurements from the highest concentration samples had to be removed, which impaired the determination of the interpolation curve. Moreover, the signal is much smaller compared to the other studied ligands. […] This is a deviation from the theoretically found true value of 1985 nM − 2.5 nM = 1982.5 nM. The KT,2 is 2% below the EC50 value of the %Tbound, ternary curve. The apparent cooperativity of 460,000 nM/1985 nM = 232 is still below the cooperativity α of 460,000 nM/1941 = 237 (Figure 10b).
A 1:2 dilution series of all compounds (starting from the 10 mM stock concentration) was prepared in pure DMSO. Each concentration was diluted 25-fold with assay buffer (20 mM HEPES, pH 7.4, 150 mM NaCl, 1 mM DTT (all from Carl Roth, Karlsruhe, Germany), and 0.01% Pluronic F-127 (Sigma Aldrich, Taufkirchen, Germany)). Next, 10 µL from each of the prepared ligand dilutions was transferred into an empty well on a Dianthus Microwell Plate (DI-P001A). […] For all interactions measured via FKBP12, the target was prepared at a final concentration of 40 nM, supplemented with 5 nM NTA fluorophore. […] The resulting spectral shift signal (Ratio 670 nm/650 nm) was plotted against compound concentration and analyzed in the DI.Screening Analysis software, version 2.1.1.

[2] = target: FKBP12 in the presence of MAPRE1 (Homo sapiens, UniProt P62942+Q15691); test: Spectral shift target engagement assay, binding to FKBP12 in the presence of 10 μM MAPRE1 (ternary)
Chain of FKBP12 in the presence of MAPRE1 (P62942 whole entry): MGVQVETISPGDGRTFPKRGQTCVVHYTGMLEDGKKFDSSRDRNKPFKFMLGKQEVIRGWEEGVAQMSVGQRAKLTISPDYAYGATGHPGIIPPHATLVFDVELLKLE
Chain of FKBP12 in the presence of MAPRE1 (Q15691 whole entry): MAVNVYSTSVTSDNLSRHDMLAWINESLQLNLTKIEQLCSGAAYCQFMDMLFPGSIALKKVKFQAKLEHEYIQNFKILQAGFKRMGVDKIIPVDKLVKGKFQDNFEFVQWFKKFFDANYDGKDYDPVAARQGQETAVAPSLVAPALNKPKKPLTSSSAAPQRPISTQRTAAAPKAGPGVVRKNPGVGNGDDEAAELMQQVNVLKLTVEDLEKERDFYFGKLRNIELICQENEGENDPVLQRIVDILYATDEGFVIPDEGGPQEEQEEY
Excerpt: Our method of choice is the spectral shift method, which monitors binding events on the target isothermally and in equilibrium via an environment-sensitive near-infrared fluorophore. In the case of target engagement, either the proximity of the ligand towards the dye or structural changes occurring in the target as a result of binding lead to a change in the chemical environment of the fluorophore. Those changes affect the physiochemical properties of the reporter fluorophore and translate into either blue or red shifts (or peak broadening) of emission peaks upon ligand binding, which can be sensitively monitored by simultaneously recording the fluorescence at two wavelengths (i.e., at 650 nm and 670 nm). Calculating the ratio between the two fluorescence channels then allows to monitor subtle emission shifts that occur as a result of target engagement. Affinity measurements can then be performed by recording the spectral shift as a function of ligand concentration.
Binding studies through FKBP12: To monitor the binding of R,--SLF-11 by the stronger binding FKBP12 in the absence and in the presence of 10 μM MAPRE1 via %Cbound, binary and %Cbound, ternary, respectively, the concentration of reversibly NTA-labeled FKBP12 was limited to [Ctot] = 40 nM. […] In contrast to the experimental setup in the previous two binding experiments with monitoring through the weaker binding protein MAPRE1, where the applied protein concentrations were optimally chosen, this is not the case for the binding experiment through the stronger binder FKBP12. First of all, the applied excess of T with [Ttot] = 10 μM is roughly 20000-fold off of the proposed 100 times KT,1 threshold, which would correspond to 180 mM. Only under such excess conditions of T can the equilibrium of forming TL under the constraint that all ligand L is bound to T be reached to ensure that [Ltot] approaches the “ligand” concentration [TL]. […] If KC,2 is sufficiently high, the 20 nM deviation to correct for the protein concentration could be neglected. However, the resulting calculated value for KC,2 is 0.023 nM, accounting for the cooperativity α = 10,405 and KC,1 = 234 nM as derived by the MAPRE1 experiment. This value is far below the applied protein concentration of [Ctot] = 40 nM and makes it infeasible to estimate KC,2 from the EC50 of the %Cbound, ternary curve. Consequently, the EC50 shifts, meaning the apparent cooperativity, from monitoring the binding by the stronger binding protein C are diverging from the underlying intrinsic cooperativity α. […] The deviation of calculated (254 nM/24.2 nM = 10.5) and measured apparent cooperativity (254 nM/66 nM = 3.8) can be explained by a negative cooperativity induced by the His6-NTA tag of FKBP12. Studies to lower [Ctot] and identify a better position for the spectral shift tag on FKBP12 are ongoing (Figure 6a).
His-tagged FKBP12 was labeled using the His-Tag Labeling Kit RED-tris-NTA 2nd Generation (MO-L018; NanoTemper Technologies GmbH). The affinity between NTA dye and the His-tag of FKBP12 was determined as 7 nM. MAPRE1 was labeled using the Protein Labeling Kit RED-NHS 2nd Generation (MO-L011; NanoTemper Technologies GmbH). In brief, 10 µM of MAPRE1 was incubated with a 3-fold molar excess of fluorophore for 30 min. The unreacted fluorophore was removed by performing a size exclusion purification (B-column). Collecting the protein fraction yielded 1.8 µM labeled MAPRE1, with a degree of labeling of 0.8, as determined on a Nanodrop.
A 1:2 dilution series of all compounds (starting from the 10 mM stock concentration) was prepared in pure DMSO. Each concentration was diluted 25-fold with assay buffer (20 mM HEPES, pH 7.4, 150 mM NaCl, 1 mM DTT (all from Carl Roth, Karlsruhe, Germany), and 0.01% Pluronic F-127 (Sigma Aldrich, Taufkirchen, Germany)). Next, 10 µL from each of the prepared ligand dilutions was transferred into an empty well on a Dianthus Microwell Plate (DI-P001A). […]

[3] = tested on: FKBP12:R,S-SLF-X:MAPRE1 ternary complex; set-up: method as in PMID 40059881; details: TR-FRET proximity assay, reported earlier; cited from earlier work

## C=C1CCN2C(=O)COc3cccc(c3)C(CCc3ccc(OC)c(OC)c3)OC(=O)C3CCCCN3C(=O)C(=O)C(C)(C)COC(=O)C(CN)NC(=O)C2C1 (stereo not shown) [R,S-SLF-7]
[1]
  precipitation: precipitation at high concentrations
[2]; 40 nM FKBP12-NTA, 10 μM MAPRE1, read-out: EC50 of the %Cbound, ternary curve (measured)
  EC50: 0.11 µM
[2]; calculated with the model using α from MAPRE1 binding, read-out: calc EC50 of the %Cbound, ternary curve
  EC50: 0.048 µM
[3]
  TR-FRET Recruitment Assay (%Amax): 45%

From publication PMC11989212, “Experimental Conditions to Retrieve Intrinsic Cooperativity α Directly from Single Binding Assay Data Exemplified by the Ternary Complex Formation of FKBP12, MAPRE1 and Macrocyclic Molecular Glues” (International Journal of Molecular Sciences, 2025)
